The text below walks through data of ChEMBL document CHEMBL3580616, “Structure-based design of potent HIV-1 protease inhibitors with modified P1-biphenyl ligands: synthesis, biological evaluation, and enzyme-inhibitor X-ray structural studies” (J Med Chem, 2015).

Test [1] relates to Human immunodeficiency virus 1. Put plainly: Antiviral activity against multidrug resistant HIV1 MDR/B containing protease mutant infected in human PHA-PBMs assessed as inhibition of p24 Gag protein production. The note with it: Human immunodeficiency virus 1, MDR/B.
In test [2] the test system is Human immunodeficiency virus 1. In words: Antiviral activity against multidrug resistant HIV1 MDR/C containing protease mutant infected in human PHA-PBMs assessed as inhibition of p24 Gag protein production relative to wild type.
Test [3] deals with Human immunodeficiency virus 1. In words: Antiviral activity against multidrug resistant HIV1 MDR/B containing protease mutant infected in human PHA-PBMs assessed as inhibition of p24 Gag protein production relative to wild type.
Test [4] deals with Human immunodeficiency virus 1. Put plainly: Antiviral activity against multidrug resistant HIV1 MDR/C containing protease mutant infected in human PHA-PBMs assessed as inhibition of p24 Gag protein production. The note with it: Human immunodeficiency virus 1, MDR/C.
Test [5] concerns Human immunodeficiency virus 1. In words: Antiviral activity against multidrug resistant HIV1 MDR/G containing protease mutant infected in human PHA-PBMs assessed as inhibition of p24 Gag protein production. The note with it: Human immunodeficiency virus 1, MDR/G.
Test [6] deals with Human immunodeficiency virus 1. Put plainly: Antiviral activity against wild type HIV1 ERS104P infected in human PHA-PBMs assessed as inhibition of p24 Gag protein production. The note with it: Human immunodeficiency virus 1, ERS104P.
The subject of test [7] is Human immunodeficiency virus 1. In words: Antiviral activity against multidrug resistant HIV1 MDR/G containing protease mutant infected in human PHA-PBMs assessed as inhibition of p24 Gag protein production relative to wild type.
Another test has as its target Protease (Human immunodeficiency virus 1, UniProt Q9YQ12). In words: Inhibition of wild type HIV1 protease.
In test [8] the test system is Human immunodeficiency virus 1. In words: Antiviral activity against HIV1 LAI infected in human MT-2 cells assessed as virus-induced cytopathic effect by MTT assay. As to conditions: Human immunodeficiency virus 1, LAI. For orientation: Protection from cytopathic effect is a common read-out in antiviral testing.

Molecules are shown by their SMILES.

Chain of Protease (Q9YQ12 whole entry): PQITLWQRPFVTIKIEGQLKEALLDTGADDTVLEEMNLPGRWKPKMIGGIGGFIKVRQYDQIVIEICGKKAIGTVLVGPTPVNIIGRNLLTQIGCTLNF

One may read the EC50 as the concentration needed to bring the measured effect to its halfway point. Consider `CC(C)CN(C[C@@H](O)[C@H](Cc1ccccc1)NC(=O)O[C@H]1CCOC1)S(=O)(=O)c1ccc(N)cc1`, for which the EC50 in test [1] is 44 nM; in test [4], 380 nM; in [5], 398 nM; in test [6], 37 nM. The “fold change (FC)” value is recorded as 10 in test [2], 12 in test [3] and 11 in test [7].

In general, Ki refers to a measure of affinity in units of concentration, obtained from inhibition or displacement. By IC50 is commonly meant the concentration that inhibits the measured activity by half. Consider `COc1ccc(S(=O)(=O)N(CC(C)C)C[C@@H](O)[C@H](Cc2cccc(-c3c(OC)cccc3OC)c2)NC(=O)O[C@H]2CO[C@H]3OCC[C@H]32)cc1`, for which the Ki at Protease was 0.025 nM. In test [8], the IC50 came to 24 nM.

The molecule `COc1ccc(S(=O)(=O)N(CC(C)C)C[C@@H](O)[C@H](Cc2cccc(-c3cccc(OC)c3)c2)NC(=O)O[C@H]2CO[C@H]3OCC[C@H]32)cc1` came in with a Ki on Protease of 0.014 nM. Besides, in test [8], the IC50 was 5 nM.

For `COc1ccc(S(=O)(=O)N(CC(C)C)C[C@@H](O)[C@H](Cc2cccc(-c3cc(C)cc(C)c3)c2)NC(=O)O[C@H]2CO[C@H]3OCC[C@H]32)cc1`, the Ki at Protease amounted to 0.45 nM. Further, the IC50 in test [8] worked out at 56 nM.

On to `COc1ccc(S(=O)(=O)N(CC(C)C)C[C@@H](O)[C@H](Cc2cccc(-c3cc(OC)cc(OC)c3)c2)NC(=O)O[C@H]2CO[C@H]3OCC[C@H]32)cc1`, for which the Ki at Protease stood at 0.014 nM. Further, the IC50 in test [8] was determined as 5 nM.

The molecule `COc1ccc(S(=O)(=O)N(CC(C)C)C[C@@H](O)[C@H](Cc2cccc(-c3cc(C)cc(C)c3)c2)NC(=O)O[C@H]2CCOC2)cc1` returned a Ki at Protease of 0.63 nM. Further, the IC50 in test [8] was more than 1000 nM.

Molecule `COc1ccc(S(=O)(=O)N(CC(C)C)C[C@@H](O)[C@H](Cc2cccc(-c3cccc(OC)c3)c2)NC(=O)O[C@H]2CCOC2)cc1` registered a Ki at Protease of 1.53 nM. Also, the IC50 in test [8] was more than 381 nM.

Consider `COc1ccc(S(=O)(=O)N(CC(C)C)C[C@@H](O)[C@H](Cc2cccc(-c3cc(OC)cc(OC)c3)c2)NC(=O)O[C@H]2CCOC2)cc1`, for which, at Protease, the Ki was determined as 0.58 nM. Further, the IC50 in [8] stood at 180 nM.

Regarding `COc1ccc(S(=O)(=O)N(CC(C)C)C[C@@H](O)[C@H](Cc2cccc(-c3cc(C)cc(C)c3)c2)NC(=O)OC(C)(C)C)cc1`, at Protease, affinity was put at a Ki of 48.8 nM. Further, the IC50 in test [8] was more than 1000 nM.

In turn, `COc1ccc(S(=O)(=O)N(CC(C)C)C[C@@H](O)[C@H](Cc2cccc(-c3cc(OC(F)(F)F)cc(OC(F)(F)F)c3)c2)NC(=O)OC(C)(C)C)cc1` registered a Ki on Protease of 92.8 nM. In addition, the IC50 in test [8] was more than 1000 nM.

At Protease, `COc1ccc(S(=O)(=O)N(CC(C)C)C[C@@H](O)[C@H](Cc2cccc(-c3ccc4c(c3)OCO4)c2)NC(=O)OC(C)(C)C)cc1` registered a Ki of 18 nM. Also, the IC50 in test [8] is more than 1000 nM.

In the case of `COc1ccc(S(=O)(=O)N(CC(C)C)C[C@@H](O)[C@H](Cc2cccc(-c3cc(OC)cc(OC)c3)c2)NC(=O)OC(C)(C)C)cc1`, the Ki at Protease amounted to 0.82 nM. In [8], the IC50 was more than 1000 nM.

In the case of `COc1ccc(S(=O)(=O)N(CC(C)C)C[C@@H](O)[C@H](Cc2cccc(-c3ccccc3OC)c2)NC(=O)O[C@H]2CO[C@H]3OCC[C@H]32)cc1`, the EC50 in test [1] worked out at 36 nM; in [4], 2.9 nM; in test [5], 4.7 nM; in [6], 4.8 nM. The results for the “fold change (FC)” value in test [2], in [3] and in test [7] were 1, 8 and 1, respectively. The molecule also displayed a Ki at Protease of 0.012 nM. The IC50 in test [8] is 3 nM.
